Test results as given in patent publication US9975854B2, “Benzomorphan analogs and use thereof” (Purdue Pharma L.P., priority 2014, dated 2018).
Read-outs that look alike come from different tables or passages of the source.

Target: μ-opioid receptor (Homo sapiens (Human), UniProt P35372)
Experiment: μ-opioid receptor [35S]GTPγS functional assay, HEK-293 or CHO cells
Type: biochemical
Details: for Emax: relative to DAMGO
Experimental: [^35S]GTPγS functional assays were conducted using freshly thawed μ-receptor membranes prepared in-house from a cell line expressing recombinant opioid receptor in a HEK-293, CHO or U-2 OS cell background, or purchased from a commercial source (Perkin Elmer, Shelton, Conn.; or DiscovRx, Fremont, Calif.). Assay reactions were prepared by sequentially adding the following reagents to binding buffer (100 mM NaCl, 10 mM MgCl2, 20 mM HEPES, pH 7.4) on ice (final concentrations indicated): membrane protein (0.026 mg/mL), saponin ([…]), GDP ([…]) and [^35S]GTPγS (0.20 nM; Perkin Elmer, Shelton, Conn.). The prepared membrane solution (190 μl/well) was transferred to 96-shallow well polypropylene plates containing 10 μl of 20× concentrated stock solutions of the agonist [D-Ala^2, N-methyl-Phe^4 Gly-ol^5]-enkephalin (DAMGO) prepared in dimethyl sulfoxide (DMSO). Plates were incubated for 30 min at about 25° C. with shaking. Reactions were terminated by rapid filtration onto 96-well Unifilter GF/B filter plates (Perkin Elmer, Shelton, Conn.) using a 96-well tissue harvester (Perkin Elmer, Shelton, Conn.) followed by three filtration washes with 200 μl of ice-cold wash buffer (10 mM NaH2PO4, 10 mM Na2HPO4, pH 7.4). Filter plates were subsequently dried at 50° C. for 2-3 hr. BetaScint scintillation cocktail (Perkin Elmer, Shelton, Conn.) was added (50 μl/well) and plates were counted using a Packard Top-Count for 1 min/well. Data were analyzed using the sigmoidal dose-response curve fitting functions in GraphPad PRISM v. 3.0, or an in-house function for non-linear, sigmoidal dose-response curve-fitting.
μ GTP EC50 is the concentration of a compound providing 50% of the maximal response for the compound at a μ-opioid receptor.
μ GTP Emax (%) is the maximal effect elicited by a compound relative to the effect elicited by DAMGO, a standard p agonist. Generally, the μ GTP Emax (%) value measures the efficacy of a compound to treat or prevent pain or other Conditions.
In TABLE 4, activity response of certain Compounds of the Invention to the μ- and κ-opioid receptors was determined as described above for functional assays using HEK-293 or CHO cells.

[1] = HEK-293 or CHO cells, read-out: GTPγS μ EC50
[2] = HEK-293 or CHO cells, bound given in uM, read-out: GTPγS μ EC50

Structure (SMILES) | EC50 [1] [µM] | Emax (HEK-293 or CHO cells) [%] | EC50 [2] [µM] | EC50 [µM]
CN1CC[C@]2(C)c3cc(O)ccc3CC1[C@@H]2C(=O)N1CCCCC1 [Compound 106, ((6S,11R)-8-hydroxy-3,6-dimethyl-1,2,3,4,5,6-hexahydro-2,6-methanobenzo[d]azocin-11-yl)(piperidin-1-yl)methanone] | 4.09 ± 0.334 | 49 ± 1.73 |  | 
CCn1c(NC(=O)N(C)[C@H]2[C@H]3Cc4ccc(OC)cc4[C@]2(C)CCN3C)nc2ccccc21 [Compound 110, 3-(1-Ethyl-1H-benzo[d]imidazol-2-yl)-1-((2R,6S,11R)-8-methoxy-3,6-dimethyl-1,2,3,4,5,6-hexahydro-2,6-methanobenzo[d]azocin-11-yl)-1-methylurea] | 0.851 ± 0.161 | 89.2 ± 6.05 |  | 
CN1CC[C@@]2(C)c3cc(C#N)ccc3C[C@@H]1[C@@H]2NCCc1ccccc1 [Compound 113, (2R,6S,11R)-3,6-dimethyl-11-(phenethylamino)-1,2,3,4,5,6-hexahydro-2,6-methanobenzo[d]azocine-8-carbonitrile] | 11.7 ± 2.81 | 10.3 ± 1.1 |  | 
CN1CC[C@@]2(C)c3cc(O)ccc3C[C@@H]1[C@@H]2NCCC1CCCCC1 [Compound 16, (2R,6S,11R)-11-((2-cyclohexylethyl)amino)-3,6-dimethyl-1,2,3,4,5,6-hexahydro-2,6-methanobenzo[d]azocin-8-ol] | 1.27 ± 0.0901 | 77.3 ± 3.84 |  | 
CN1CC[C@@]2(C)c3cc(O)ccc3C[C@@H]1[C@@H]2N(C)C(=O)Nc1nc2ccc(F)cc2s1 [Compound 81, 3-(6-fluorobenzo[d]thiazol-2-yl)-1-((2R,6S,11R)-8-hydroxy-3,6-dimethyl-1,2,3,4,5,6-hexahydro-2,6-methanobenzo[d]azocin-11-yl)-1-methylurea] |  | -1 | > 20 | 
CN1CC[C@@]2(C)c3cc(C(N)=O)ccc3C[C@@H]1[C@H]2N(C)C(=O)Nc1ccc(C#N)cc1 [Compound 120, (2R,6S,11S)-11-(3-(4-cyanophenyl)-1-methylureido)-3,6-dimethyl-1,2,3,4,5,6-hexahydro-2,6-methanobenzo[d]azocine-8-carboxamide] |  | -0.33 ± 0.67 | > 20 | 
CN1CC[C@@]2(C)c3cc(O)ccc3C[C@@H]1[C@H]2NCCc1ccc(S(C)(=O)=O)cc1 [Compound 11, (2R,6S,11S)-3,6-dimethyl-11-((4-(methylsulfonyl)phenethyl)amino)-1,2,3,4,5,6-hexahydro-2,6-methanobenzo[d]azocin-8-ol] | 0.0356 ± 0.0059 | 16.7 ± 0.33 |  | 
CN1CC[C@@]2(C)c3cc(C(=O)O)ccc3C[C@@H]1[C@@H]2NCCc1ccc(S(C)(=O)=O)cc1 [Compound 126, (2R,6S,11R)-3,6-dimethyl-11-((4-(methylsulfonyl)phenethyl)amino)-1,2,3,4,5,6-hexahydro-2,6-methanobenzo[d]azocine-8-carboxylic acid] |  | 18.4 ± 0.3 | > 20 | 
CN(CC1CCN(S(=O)(=O)Cc2ccccc2)CC1)C1[C@H]2Cc3ccc(O)cc3C1(C)CCN2C (stereo in doubt) [Compound 58, (2R,6S,11S)-11-(((1-(benzylsulfonyl)piperidin-4-yl)methyl)(methyl)amino)-3,6-dimethyl-1,2,3,4,5,6-hexahydro-2,6-methanobenzo[d]azocin-8-ol] | 0.0132 ± 0.00071 | 58 ± 7.55 |  | 
CN1CCC2(C)c3cc(O)ccc3C[C@@H]1C2NS(=O)(=O)c1ccccc1 (stereo in doubt) [Compound 102, N-((2R,6S,11S)-8-hydroxy-3,6-dimethyl-1,2,3,4,5,6-hexahydro-2,6-methanobenzo[d]azocin-11-yl)benzenesulfonamide] |  | -1 | > 20 | 
CC(C)CS(=O)(=O)N1CCC(CN(C)C2[C@H]3Cc4ccc(O)cc4C2(C)CCN3C)CC1 (stereo in doubt) [Compound 59, (2R,6S,11S)-11-(((1-(isobutylsulfonyl)piperidin-4-yl)methyl)(methyl)amino)-3,6-dimethyl-1,2,3,4,5,6-hexahydro-2,6-methanobenzo[d]azocin-8-ol] | 0.0528 ± 0.005 | 27 ± 1.53 |  | 
CN1CC[C@@]2(C)c3cc(C(N)=O)ccc3C[C@@H]1[C@H]2NCCc1ccccc1 [Compound 115, (2R,6S,11S)-3,6-dimethyl-11-(phenethylamino)-1,2,3,4,5,6-hexahydro-2,6-methanobenzo[d]azocine-8-carboxamide] | 0.525 ± 0.0263 | 83.4 ± 1.58 |  | 
CN1CC[C@@]2(C)c3cc(O)ccc3C[C@@H]1[C@@H]2NCC1(O)CCCCC1 [Compound 14, (2R,6S,11R)-11-(((1-hydroxycyclohexyl)methyl)amino)-3,6-dimethyl-1,2,3,4,5,6-hexahydro-2,6-methanobenzo[d]azocin-8-ol] | 8.69 ± 2.27 | 15 ± 1.58 |  | 
CN1CC[C@@]2(C)c3cc(O)ccc3C[C@@H]1[C@@H]2NCCCCNC(=O)OC(C)(C)C [Compound 18, Tert-butyl (4-(((2R,6S,11R)-8-hydroxy-3,6-dimethyl-1,2,3,4,5,6-hexahydro-2,6-methanobenzo[d]azocin-11-yl)amino)butyl)carbamate] | 0.124 ± 0.0183 | 48.4 ± 3.28 |  | 
CN1CCC2(C)c3cc(O)ccc3C[C@@H]1C2NC(=O)CCC(=O)Nc1ccc(F)cc1F (stereo in doubt) [Compound 34, N^1-(2,4-difluorophenyl)-N^4-((2R,6S,11S)-8-hydroxy-3,6-dimethyl-1,2,3,4,5,6-hexahydro-2,6-methanobenzo[d]azocin-11-yl)succinamide] |  | 2.67 ± 0.33 | > 20 | 
CN1CC[C@@]2(C)c3cc(C(=O)O)ccc3C[C@@H]1[C@H]2NCCc1ccc(S(C)(=O)=O)cc1 [Compound 125, (2R,6S,11S)-3,6-dimethyl-11-((4-(methylsulfonyl)phenethyl)amino)-1,2,3,4,5,6-hexahydro-2,6-methanobenzo[d]azocine-8-carboxylic acid] |  | 0 | > 20 | 
CN1CC[C@@]2(C)c3cc(O)ccc3C[C@@H]1[C@@H]2N(C)C(=O)Cc1ccc(S(C)(=O)=O)cc1 [Compound 28, N-((2R,6S,11R)-8-hydroxy-3,6-dimethyl-1,2,3,4,5,6-hexahydro-2,6-methanobenzo[d]azocin-11-yl)-N-methyl-2-(4-(methylsulfonyl)phenyl)acetamide] | 0.182 ± 0.012 | 84.7 ± 1.2 |  | 
CCN(CCc1ccc(S(C)(=O)=O)cc1)[C@H]1[C@H]2Cc3ccc(O)cc3[C@]1(C)CCN2C [Compound 98, (2R,6S,11R)-11-(ethyl(4-(methylsulfonyl)phenethyl)amino)-3,6-dimethyl-1,2,3,4,5,6-hexahydro-2,6-methanobenzo[d]azocin-8-ol] | 0.00064 ± 8.2e-05 | 44.6 ± 0.6 |  | 
CCS(=O)(=O)N1CCC(CN(C)[C@H]2[C@H]3Cc4ccc(O)cc4[C@]2(C)CCN3C)CC1 [Compound 56, (2R,6S,11R)-11-(((1-(ethylsulfonyl)piperidin-4-yl)methyl)(methyl)amino)-3,6-dimethyl-1,2,3,4,5,6-hexahydro-2,6-methanobenzo[d]azocin-8-ol] | 0.0967 ± 0.00987 | 62 ± 1.53 |  | 
CN1CC[C@@]2(C)c3cc(O)ccc3C[C@@H]1[C@H]2NCCC1CCCCC1 [Compound 17, (2R,6S,11 S)-11-((2-cyclohexylethyl)amino)-3,6-dimethyl-1,2,3,4,5,6-hexahydro-2,6-methanobenzo[d]azocin-8-ol] | 0.0929 ± 0.00079 | 55.3 ± 4.1 |  | 
CN1CC[C@@]2(C)c3cc(C#N)ccc3C[C@@H]1C2(O)O [Compound 116, (2R,6S)-11,11-dihydroxy-3,6-dimethyl-1,2,3,4,5,6-hexahydro-2,6-methanobenzo[d]azocine-8-carbonitrile] |  | 0 |  | > 20
CN1CC[C@@]2(C)c3cc(O)ccc3C[C@@H]1[C@@H]2NC(=O)CC(=O)Nc1ccc(F)cc1F [Compound 30, N^1-(2,4-difluorophenyl)-N^3—((2R,6S,11R)-8-hydroxy-3,6-dimethyl-1,2,3,4,5,6-hexahydro-2,6-methanobenzo[d]azocin-11-yl)malonamide] |  | 2.67 ± 3.67 | > 20 | 
CN1CC[C@@]2(C)c3cc(O)ccc3C[C@@H]1[C@@H]2N(C)CC(=O)Nc1ccc(C(F)(F)F)cc1 [Compound 41, 2-(((2R,6S,11R)-8-hydroxy-3,6-dimethyl-1,2,3,4,5,6-hexahydro-2,6-methanobenzo[d]azocin-11-yl)(methyl)amino)-N-(4-(trifluoromethyl)phenyl)acetamide] |  | 5.33 ± 1.45 | > 20 | 
CN1CCC2(C)c3cc(O)ccc3C[C@@H]1C2NC(=O)Cc1ccccc1 (stereo in doubt) [Compound 29, N-((2R,6S,11S)-8-hydroxy-3,6-dimethyl-1,2,3,4,5,6-hexahydro-2,6-methanobenzo[d]azocin-11-yl)-2-phenylacetamide] |  | 1 | > 20 | 
